Publication PMC5431883, “Enhancing Specific Disruption of Intracellular Protein Complexes by Hydrocarbon Stapled Peptides Using Lipid Based Delivery” (Scientific Reports, 2017)
“Also recorded” adds a separate entry of the source. Like-named read-outs stand apart in the source and are kept apart here. Positions of bridges follow the written chain, without caps; N, C: chain ends. Non-standard residues stand in square brackets, D forms with d. Residues, ends and D or L forms follow the SMILES beside them. R8 = C=CCCCCCC[C@@](C)(N)C(=O)O; S5 = C=CCCC[C@](C)(N)C(=O)O; Ahx = NCCCCCC(=O)O

Columns and labels:
[1] = target: T1, Mdm2 (1-125) (Homo sapiens, UniProt Q00987); assay: Mdm2 competitive fluorescence anisotropy assay (FAM-labeled 12/1 peptide displacement); assay type: binding
T1 construct: Purified MDM2 (1-125) protein was titrated against 50 nM carboxyfluorescein (FAM)-labeled; GST (N, cleaved yes); made in house; host or cells: E. coli BL21 DE3 (pGEX-6P-1)

[2] = system: T22 p53 reporter cells; assay: p53 gene reporter assay (β-galactosidase) in T22 cells; assay type: cell-based, murine; conditions: 18 h, 1% DMSO, normalised to 25 µM Nutlin, 4 parameter fit to 10 point titration
Experimental: T22 cells, which were stably transfected with a p53 responsive β-galactosidase reporter, were seeded into a 96-well plate at a cell density of 8000 cells per well. Cells were also maintained in Dulbecco’s Minimal Eagle Medium (DMEM) with 10% fetal calf serum (FCS) and 1% (v/v) penicillin/streptomycin. The cells were incubated for 24 hours and followed by cell media removal and replacement with 90 µl of fresh DMEM either containing 10% FCS or 0% FCS. 10 µl of each compound was then added directly to each well and incubated for 18 hours. Final working concentration of DMSO was 1% v/v. […] Measurements were carried out using an Envision multiplate reader (Perkin-Elmer). […] This was then used to normalize the experimental results.

[3] = system: T22 cells; assay: Lactate dehydrogenase (LDH) release assay in T22 cells; assay type: cell-based, murine; conditions: for LDH Release (T22 Cells), 0% FCS (LDH50) / LDH Release (T22 Cells), 10% FCS (LDH50): 2 h treatment, normalised to 0.1% Triton X-100 lysis, 4 parameter fit to 10 point titration
Experimental: (§1) T22 cells or HEK 293 cells were seeded into a 96-well plate at a cell density of 5000 cells per well. Cells were maintained in Dulbecco’s Minimal Eagle Medium (DMEM) with 10% fetal bovine serum (FBS) and 1% (v/v) penicillin/streptomycin. The cells were incubated for 24 hours followed by cell media removal and addition of 90 µl of DMEM either with or without 10% FCS. Cells were then treated with compounds/peptide for 2 hours in DMEM with or without 10% FBS. Final working concentration of DMSO was 1% v/v. Corresponding negative control wells with 1% DMSO only were also prepared. Cytosolic lactate dehydrogenase release was detected using the cytoTox 96® non-radioactive cytotoxicity Assay kit (Promega) as per manufacturer’s instructions. Measurements were carried out using an Envision multiplate reader (Perkin-Elmer). Maximum LDH release was defined as the amount of LDH released when cells were lysed in the presence of 0.1% TRITON X-100 and was used to normalize the results.

[4] = target: T2, Mdm2:p53 complex (Homo sapiens, UniProt Q00987); assay: NanoBRET Mdm2:p53 live cell assay; assay type: cell-based; conditions: HEK293 cells, 0% FCS versus 10% FCS
T2 construct: host or cells: HEK293
Experimental: all competitive types of experiments, it is assumed that [P]t > [L]st, otherwise considerable amounts of free labeled ligand would always be present and would interfere with measurements. Kd1 is the […]
experimentally determined as described in the previous paragraph. The FAM-labeled peptide was dissolved in dimethyl sulfoxide (DMSO) at 1 mM and diluted into experimental buffer. Readings were carried out with an Envision Multilabel Reader (PerkinElmer). Experiments were carried out […]
Tween 20 buffer. All titrations were carried out in triplicate. Curve-fitting was carried out using […]
Negative control titrations of the ligands under investigation were also carried out with the fluorescently labeled peptide (in the absence of MDM2) to ensure no interactions were occurring between the ligands and FAM-labeled peptide. […]
which would otherwise indicate an unintended interaction between the ligand and the FAM-labeled peptide to be displaced from the MDM2 binding site.
Nanobret Mdm2:p53 Cell Based Assay
HEK293 cells were seeded at a cell density of 250,000 cells per well into a 6 well plate and incubated overnight at 37 °C and 5% CO2 in DMEM with 0.3 mg/ml glutamine, 100 IU/ml penicillin, 100 μg/ml streptomycin and 10% fetal calf serum. Each well was transfected with a […]

[5] = system: HEK293 cells; assay: Lactate dehydrogenase (LDH) release assay in HEK293 cells; assay type: cell-based; conditions: 2 hour treatment, 12.5, 25 and 50 µM, normalised to 0.1% Triton X100 (Figure S1); for LDH release in HEK293 cells, absence of serum (in words): 0% FCS; for LDH release in HEK293 cells, high serum conditions (in words): 10% FCS
Experimental: as §1, with “results. […]” for “results.”
to induce LDH release in HEK293 cells after a 2 hour treatment period in A) the absence of FCS and B) the presence of 10% FCS. Compounds were tested at concentrations of 12.5 µM, 25 µM and 50 µM. Results were normalized to maximal LDH release as measured by treatment with 0.1% Triton X100.
(1 picture or pasted object on this page, not shown here)

T2 sequence (Q00987 whole entry, one chain of several): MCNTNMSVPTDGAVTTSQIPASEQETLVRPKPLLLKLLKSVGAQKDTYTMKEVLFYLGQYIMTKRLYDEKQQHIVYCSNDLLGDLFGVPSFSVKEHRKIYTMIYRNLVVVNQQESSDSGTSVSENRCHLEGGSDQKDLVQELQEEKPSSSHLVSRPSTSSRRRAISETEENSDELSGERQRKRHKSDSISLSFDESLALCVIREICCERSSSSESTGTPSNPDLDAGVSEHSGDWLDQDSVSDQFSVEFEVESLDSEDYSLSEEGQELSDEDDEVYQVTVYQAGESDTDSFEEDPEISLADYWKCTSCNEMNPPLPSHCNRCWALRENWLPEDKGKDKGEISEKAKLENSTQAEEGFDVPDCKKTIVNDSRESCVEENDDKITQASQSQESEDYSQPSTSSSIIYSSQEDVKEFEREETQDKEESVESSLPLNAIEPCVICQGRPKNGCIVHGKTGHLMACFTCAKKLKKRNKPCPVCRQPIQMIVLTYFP
T1 sequence (Q00987 1-125): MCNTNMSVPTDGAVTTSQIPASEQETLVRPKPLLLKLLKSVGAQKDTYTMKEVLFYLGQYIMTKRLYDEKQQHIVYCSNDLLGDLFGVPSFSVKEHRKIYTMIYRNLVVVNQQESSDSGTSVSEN

improvement in affinity for Mdm2 over the library template sequence (sMTIDE-02) [1] [fold] | Kd ([1]; competitive fluorescence anisotropy, text refers to Table S1, read-out: Kd for binding to Mdm2 (as quoted in the text from Table S1)) [nM] | LDH Release (T22 Cells), 10% FCS (LDH50) [3] | improvement of NanoBRET IC50 in serum free conditions over high serum conditions [4] [fold] | LDH release in HEK293 cells, high serum conditions (in words) [5] | Compound | EC50 ([2]; 0% FCS, read-out: P53 Activation (T22 Cells), 0% FCS (p53ACT50 / EC50)) [nM] | EC50 ([2]; read-out: P53 Activation (T22 Cells), 10% FCS (p53ACT50 / EC50), 10% FCS) [nM] | LDH Release (T22 Cells), 0% FCS (LDH50) [3] | LDH release in HEK293 cells, absence of serum (in words) [5] | cytotoxicity (LDH leakage) in the library screen, absence of serum (in words) ([3]; absence of serum, within 2 hours after treatment)
2 | 24.4 ± 2.3 | No release | 4.5 | absence of LDH release | CC(=O)N[C@@H](CCCCN)C(=O)N[C@@H](CCCCN)C(=O)NCCCCCC(=O)N[C@H](C(=O)N[C@@H](CO)C(=O)N[C@@H](Cc1ccccc1)C(=O)N[C@]1(C)CCCCCCC=CCCC[C@@](C)(C(=O)N[C@@H](CCC(=O)O)C(=O)N[C@@H](CC(N)=O)C(=O)N[C@@H](Cc2ccccc2)C(N)=O)NC(=O)[C@H](CC(C)C)NC(=O)[C@H](CC(C)C)NC(=O)[C@H](C)NC(=O)[C@H](Cc2c[nH]c3ccccc23)NC(=O)[C@H](Cc2ccc(O)cc2)NC(=O)[C@H](CCC(=O)O)NC1=O)[C@@H](C)O [VIP-82] (Ac-KK[Ahx]TSF[R8]EYWALL[S5]ENF-NH2; staple 7-14) | 800 ± 100 | 10000 ± 100 | did not cause any measurable LDH release; also recorded: No release | remained inert | –
– | – | No release | 9 | absence of LDH release | CC(=O)N[C@H](C(=O)N[C@@H](CO)C(=O)N[C@@H](Cc1ccccc1)C(=O)N[C@]1(C)CCCCCCC=CCCC[C@@](C)(C(N)=O)NC(=O)[C@H](CC(C)C)NC(=O)[C@H](CC(C)C)NC(=O)[C@H](C)NC(=O)[C@H](Cc2c[nH]c3ccccc23)NC(=O)[C@H](Cc2ccc(O)cc2)NC(=O)[C@H](CCC(=O)O)NC1=O)[C@@H](C)O [sMTIDE-02] | – | – | 50.5 ± 1.7 µM | induced significant amounts of LDH release | induced LDH leakage
